Where “and” joins values, the source holds several entries; their conditions need not be identical. Equal values may be shown once. Entries after “also recorded” stand apart in the source; their conditions may differ. Where a name gives a salt, the structure may show the parent alone. Read-outs that look alike come from different tables or passages of the source.
Assays:
GPR81 [1] = target: T1, GPR81 (Homo sapiens, UniProt Q9BXC0); test: GPR81 agonist ligand activity, GTPγS binding assay (species of receptor not given); type: biochemical; set-up: expressed in transfected cells; host or cells: GPR81-expressing cells / membranes (CHO); details: for GPR81 agonist activity: yes/no; for stimulation of 35S-GTPγS binding in GPR81-expressing cells / cell membranes: concentration not given
Target sequence in this assay (Q9BXC0 whole entry, species assumed): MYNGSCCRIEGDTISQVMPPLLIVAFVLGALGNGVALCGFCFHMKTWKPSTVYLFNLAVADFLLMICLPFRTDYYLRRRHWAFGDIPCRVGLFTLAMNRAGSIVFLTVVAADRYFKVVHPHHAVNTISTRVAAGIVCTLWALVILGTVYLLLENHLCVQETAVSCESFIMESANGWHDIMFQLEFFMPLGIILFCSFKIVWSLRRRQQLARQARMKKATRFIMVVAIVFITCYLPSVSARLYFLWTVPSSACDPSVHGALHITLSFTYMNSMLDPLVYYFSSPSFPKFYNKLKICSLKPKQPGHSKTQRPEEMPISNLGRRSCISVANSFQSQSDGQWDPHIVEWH

[2] = cAMP inhibition-linked β-gal assay, control cells; type: cell-based
HM74 [3] = test: cAMP inhibition-linked β-gal assay, HM74 expressing cells; type: cell-based
[4] = 35S-GTPγS binding assay, control membranes; type: biochemical, Chinese hamster; details: negative control
HM74A = target: T2, HM74A (Homo sapiens, UniProt Q8TDS4); test: 35S-GTPγS binding assay, HM74A-expressing CHO membranes; type: biochemical
T2 construct: expressed in transfected cells; host or cells: CHO cells, membranes

HM74 [5] = target: T3, HM74 (Homo sapiens, UniProt P49019); test: 35S-GTPγS binding assay, HM74-expressing CHO membranes; type: biochemical
T3 construct: expressed in transfected cells; host or cells: CHO cells, membranes

GPR81 [6] = target: T1, GPR81; test: 35S-GTPγS binding assay, membranes of CHO cells expressing human GPR81; type: biochemical; set-up: expressed in transfected cells; host or cells: CHO-K1 (transient, pCIneo), membranes
Target sequence in this assay (Q9BXC0 whole entry): as the sequence (Q9BXC0 whole entry, species assumed) above

GPR81 [7] = target: T1, GPR81; details: 5 μM forskolin
Text: A β-galactosidase (β-gal) assay system was also used to characterize the GPR81 activation in SK-N-MC/CRE-β-gal cells stably expressing human GPR81. GPCRs that couple with Gi proteins, upon activation by agonist, inhibit cAMP accumulation, and therefore inhibit forkolin-stimulated β-gal expression. A cell line stably expressing human GPR81 was established from an SK-N-MC/CRE-β-gal cell line, which harbors a β-galactosidase β-gal) gene under the control of a cAMP-responsive element (CRE). SK-N-MC/CRE-β-gal cells were transfected with the above-described human GPR81-pCIneo construct using LipofectAmine as the transfection reagent. Two days after transfection, the cells were split into new culture dishes at different densities and grown under selection of G418 for three weeks. Single isolated clones were isolated and tested for responsiveness to L-lactate stimulation. […] The β-gal activity was assayed as described (Liu et al., Mol. Pharmacol., Vol. 67, pp. 231-240 (2005)).
Target sequence in this assay (Q9BXC0 whole entry): as the sequence (Q9BXC0 whole entry, species assumed) above

monkey GPR81 = test: GTPγS binding assay, monkey GPR81; type: biochemical; details: FIG. 20
Text: The forward primer, 5′ ACTAGAGAATTCGCCACCATGTACAACGGGTCGTGCTGCCGCAT 3′ (SEQ ID NO:15), and the reverse primer, 5′ ATGATAGCGGCCGCTCAGTGCCACTCAACAGTGTGGGGATC 3′ (SEQ ID NO:16), were designed based on the identified monkey GPR81 coding sequence and were used to amplify the monkey GPR81 coding region using monkey genomic DNA as template.

dog GPR81 = test: GTPγS binding assay, dog GPR81; type: biochemical; details: FIG. 20
porcine GPR81 = test: GTPγS binding assay, porcine GPR81; type: biochemical; details: FIG. 20
rat GPR81L = test: GTPγS binding assay, rat GPR81L; type: biochemical; details: FIG. 19
Text: (§1) The longer polypeptide sequence was termed rat GP[…]; the shorter polypeptide sequence was termed rat GP[…]. […] The forward primer, 5' [NT] ID NO:7), and the reverse primer, [NT] […] The forward primer, [NT] ID NO:9), and reverse primer, [NT]

mouse GPR81S = target: T4, mouse GPR81S (Mus musculus, UniProt Q8C131); test: GTPγS binding assay, mouse GPR81S; type: biochemical; details: FIG. 19
T4 construct: expressed in transfected cells; host or cells: CHO-K1 (transient, pCIneo), membranes
T4 sequence (Q8C131 1-343): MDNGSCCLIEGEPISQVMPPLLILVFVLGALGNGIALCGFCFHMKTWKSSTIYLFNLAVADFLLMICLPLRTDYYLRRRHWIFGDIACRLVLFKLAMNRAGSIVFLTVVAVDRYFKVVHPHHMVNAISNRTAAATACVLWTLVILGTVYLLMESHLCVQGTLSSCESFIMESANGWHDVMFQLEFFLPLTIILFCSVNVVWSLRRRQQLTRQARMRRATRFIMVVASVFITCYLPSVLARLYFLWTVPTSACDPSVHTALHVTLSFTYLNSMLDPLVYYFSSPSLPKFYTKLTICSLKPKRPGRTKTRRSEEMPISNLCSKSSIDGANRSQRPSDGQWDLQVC
Text: (§2) The longer polypeptide sequence was termed mouse GP[…]; the shorter polypeptide sequence was termed mouse GP[…].

rat GPR81S = test: GTPγS binding assay, rat GPR81S; type: biochemical; details: FIG. 19
Text: as §1

mouse GPR81L = target: T5, mouse GPR81L (Mus musculus, UniProt Q8C131); test: GTPγS binding assay, mouse GPR81L; type: biochemical; details: FIG. 19
T5 construct: expressed in transfected cells; host or cells: CHO-K1 (transient, pCIneo), membranes
T5 sequence (Q8C131 with tags, fused parts or gaps): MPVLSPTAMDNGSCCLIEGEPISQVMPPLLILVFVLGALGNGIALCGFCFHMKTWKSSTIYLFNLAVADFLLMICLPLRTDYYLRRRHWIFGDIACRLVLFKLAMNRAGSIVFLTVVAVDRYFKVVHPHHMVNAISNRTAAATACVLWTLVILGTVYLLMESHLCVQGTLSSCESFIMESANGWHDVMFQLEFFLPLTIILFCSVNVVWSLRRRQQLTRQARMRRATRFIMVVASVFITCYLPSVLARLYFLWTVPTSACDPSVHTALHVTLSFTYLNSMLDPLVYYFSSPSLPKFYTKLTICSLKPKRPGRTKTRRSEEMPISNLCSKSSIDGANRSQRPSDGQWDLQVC
Text: as §2

bovine GPR81 = test: GTPγS binding assay, bovine GPR81; type: biochemical; details: FIG. 20
Text: TAA GTC ACC AAT CC 3′ (SEQ ID NO:12), were designed based on the identified bovine GPR81 coding sequence and were used to amplify the bovine GPR81 coding region using bovine genomic DNA as template.

GPR81 [8] = target: T1, GPR81; details: Tunaru et al., Nat. Med. 2003; cited from earlier work
Target sequence in this assay (Q9BXC0 whole entry, species assumed): as the sequence (Q9BXC0 whole entry, species assumed) above

T3 sequence (P49019 whole entry): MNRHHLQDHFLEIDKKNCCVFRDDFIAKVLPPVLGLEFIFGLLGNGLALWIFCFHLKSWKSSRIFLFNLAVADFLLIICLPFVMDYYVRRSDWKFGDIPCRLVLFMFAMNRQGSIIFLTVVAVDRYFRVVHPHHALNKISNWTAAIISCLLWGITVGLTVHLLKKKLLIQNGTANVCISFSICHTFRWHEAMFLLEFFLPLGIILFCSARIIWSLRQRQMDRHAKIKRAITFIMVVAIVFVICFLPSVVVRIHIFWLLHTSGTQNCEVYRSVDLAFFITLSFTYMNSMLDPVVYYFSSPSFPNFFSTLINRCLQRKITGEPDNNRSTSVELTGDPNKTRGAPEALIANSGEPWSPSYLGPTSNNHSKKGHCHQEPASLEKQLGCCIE
T2 sequence (Q8TDS4 whole entry): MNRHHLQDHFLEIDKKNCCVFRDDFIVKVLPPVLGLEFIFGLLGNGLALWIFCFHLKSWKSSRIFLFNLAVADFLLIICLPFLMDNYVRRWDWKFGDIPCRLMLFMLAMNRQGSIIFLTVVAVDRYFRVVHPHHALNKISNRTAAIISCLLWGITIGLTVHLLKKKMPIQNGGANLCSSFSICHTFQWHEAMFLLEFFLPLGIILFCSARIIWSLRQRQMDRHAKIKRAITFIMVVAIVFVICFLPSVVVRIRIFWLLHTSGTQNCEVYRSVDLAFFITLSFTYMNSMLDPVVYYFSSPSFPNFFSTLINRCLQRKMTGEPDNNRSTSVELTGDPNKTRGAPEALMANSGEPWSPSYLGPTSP

For `O=C([O-])CO.[Na+]` [glycolic acid, sodium salt], which GPR81 agonist activity (GPR81 [1]; listed as glycolate, sodium salt) is on record?
Its GPR81 agonist activity is “demonstrated significant GPR81 agonist activity”.

What about the GPR81 agonist activity (GPR81 [1]; sodium salt) of the same compound?
Its GPR81 agonist activity is “yes”.

With `O=C(O)C(F)(F)Cl` [chlorodifluoroacetate (CDFA), chlorodifluoroacetate] as the compound, how does the GPR81 agonist activity (GPR81 [1]) read?
The GPR81 agonist activity was “yes”.

What about the GPR81 agonist activity (GPR81 [1]; listed as chlorodifluoroacetate) of the same compound?
Its GPR81 agonist activity is “showed GPR81-agonist activity”.

With `O=CC(=O)O` [glyoxylate] as the compound, how does the GPR81 agonist activity (GPR81 [1]) read?
The GPR81 agonist activity was “neither acetate, pyruvate, formiate, nor glyoxylate activated GPR81 and no”.

With `C[C@H](O)C(=O)O` [L-lactate] as the compound, how does the “inhibition of forskolin-induced β-gal expression in control cells not expressing a GPCR” value [2] read?
Its value is “did not inhibit”.

And the “inhibition of forskolin-induced β-gal expression in control cells not expressing a GPCR” value ([2]; listed as lactate)?
Its value is “not in cells not expressing GPR81”.

What about the “inhibition of forskolin-induced β-gal expression in HM74 expressing cells” value (HM74 [3]) of the same compound?
Its value is “did not inhibit”.

And the “35S-GTPγS binding stimulation in control cells/membranes not expressing GPR81 or any GPCR” value [4]?
Its value is “did not activate”.

And the “activation of HM74A-expressing membranes (35S-GTPγS binding)” value (HM74A)?
The value was “did not activate”.

What about the “activation of HM74-expressing membranes (35S-GTPγS binding)” value (HM74 [5]) of the same compound?
Its value is “did not activate”.

And the EC50 (GPR81 [6]; CHO membranes, read-out: EC50, activation of human GPR81 (35S-GTPγS binding))?
The EC50 was ~5 mM and 5 mM.

And the “receptor activation of GPR81” value (GPR81 [6]; at 1 mM concentration)?
The value was “capable of stimulating detectable receptor activation”.

What about the “inhibition of forskolin-induced β-gal expression in GPR81-expressing cells” value (GPR81 [7]) of the same compound?
The value was “inhibits forskolin-induced β-galactosidase expression”.

And the EC50 (GPR81 [7]; read-out: EC50, inhibition of forskolin-induced β-gal expression in GPR81-expressing cells)?
The EC50 was ~3 mM.

Which “activation of monkey GPR81” value (monkey GPR81) does the source give for `CC(O)CC(=O)O` (stereo not drawn) [β-hydroxybutyrate] here?
Its value is “did not activate”.

And the “activation of dog GPR81” value (dog GPR81)?
Its value is “did not activate”.

And the “activation of porcine GPR81” value (porcine GPR81)?
The value was “did not activate”.

What about the “activation of rat GPR81L” value (rat GPR81L) of the same compound?
The value was “did not activate”.

What about the “activation of human GPR81 (GTPγS binding)” value (GPR81 [6]) of the same compound?
The value was “did not activate”.

What about the “activation of mouse GPR81S” value (mouse GPR81S) of the same compound?
Its value is “did not activate”.

What about the “activation of rat GPR81S” value (rat GPR81S) of the same compound?
Its value is “did not activate”.

What about the GPR81 agonist activity (GPR81 [1]) of the same compound?
Its GPR81 agonist activity is “no”.

What about the “activation of mouse GPR81L” value (mouse GPR81L) of the same compound?
Its value is “did not activate”.

What about the “activation of bovine GPR81” value (bovine GPR81) of the same compound?
Its value is “did not activate”.

What does the source list for `O=C(O)C(F)(F)F` [trifluoroacetate (TFA), trifluoroacetate]?
GPR81 agonist activity (GPR81 [1]): yes; GPR81 agonist activity (GPR81 [1]; listed as trifluoroacetate): showed GPR81-agonist activity

With `O=C(O)C(F)F` [difluoroacetate] as the compound, how does the GPR81 agonist activity (GPR81 [1]) read?
Its GPR81 agonist activity is “showed GPR81-agonist activity”.

Which “inhibition of forskolin-induced β-gal expression in control cells not expressing a GPCR” value [2] does the source give for `O=C(O)c1cccnc1` [nicotinic acid] here?
The value was “failed to inhibit”.

And the “inhibition of forskolin-induced β-gal expression in HM74 expressing cells” value (HM74 [3])?
The value was “inhibited forskolin-induced β-gal expression”.

And the “inhibition of forskolin-induced β-gal expression in GPR81-expressing cells” value (GPR81 [7])?
Its value is “failed to inhibit; also recorded: not in cells expressing GPR81”.

And the “activation of GPR81” value (GPR81 [8])?
The value was “does not activate”.

Which results are given for `CC(C)(O)C(=O)[O-].[Na+]` [sodium hydroxyisobutyrate]?
GPR81 agonist activity (GPR81 [1]): yes; GPR81 agonist activity (GPR81 [1]; listed as hydroxy-iso-butyrate): demonstrated significant GPR81 agonist activity

Which GPR81 agonist activity (GPR81 [1]) does the source give for `CC(Cl)(Cl)C(=O)[O-].[Na+]` [2,2-dichloropropionic acid, sodium salt] here?
The GPR81 agonist activity was “no”.

Which GPR81 agonist activity (GPR81 [1]) does the source give for `CC(=O)O` [acetate] here?
The GPR81 agonist activity was “neither acetate, pyruvate, formiate, nor glyoxylate activated GPR81 and no”.

Which GPR81 agonist activity (GPR81 [1]) does the source give for `N[C@@H](CCO)C(=O)O` [L-homoserine] here?
Its GPR81 agonist activity is “none of glucose, L-homoserine, or any L-amino acids tested activated GPR81 and no”.

With `CCC(O)C(=O)O` (stereo not drawn) [α-hydroxybutyrate] as the compound, how does the GPR81 agonist activity (GPR81 [1]) read?
The GPR81 agonist activity was “yes”.

For `C[C@@H](O)C(=O)O` [D-lactate], which “efficacy as GPR81 agonist (comparison)” value (GPR81 [1]) is on record?
The value was “less efficacious”.

And the GPR81 agonist activity (GPR81 [1])?
Its GPR81 agonist activity is “demonstrated significant GPR81 agonist activity and yes”.

With `CC(Cl)C(=O)[O-].[Na+]` (centres unmarked) [2-chloropropionic acid, sodium salt] as the compound, how does the GPR81 agonist activity (GPR81 [1]; listed as 2-chloropropinoate, sodium salt) read?
Its GPR81 agonist activity is “showed GPR81-agonist activity”.

And the GPR81 agonist activity (GPR81 [1]; sodium salt)?
The GPR81 agonist activity was “yes”.

For `O=CO` [formiate], which GPR81 agonist activity (GPR81 [1]) is on record?
The GPR81 agonist activity was “neither acetate, pyruvate, formiate, nor glyoxylate activated GPR81 and no”.

Which GPR81 agonist activity (GPR81 [1]) does the source give for `CC(Cl)C(=O)Cl` (centres unmarked) [2-chloropropinoyl chloride] here?
The GPR81 agonist activity was “showed GPR81-agonist activity and yes”.

For `O=C(O)C(Br)(Br)Br` [tribromoacetate (TEA), tribromoacetate], which GPR81 agonist activity (GPR81 [1]) is on record?
The GPR81 agonist activity was “no”.

Which results are given for `NCCCC(=O)O` [γ-aminobutyric acid (GABA), γ-aminobutyric acid]?
stimulation of 35S-GTPγS binding in GPR81-expressing cells / cell membranes (GPR81 [1]): did not stimulate; GPR81 agonist activity (GPR81 [1]): no; GPR81 agonist activity (GPR81 [1]; listed as gamma-aminobutyric acid (GABA)): did not activate it

For `O=C(O)CCCO` [γ-hydroxybutyric acid (GHB), γ-hydroxybutyric acid], which “35S-GTPγS binding stimulation in control cells/membranes not expressing GPR81 or any GPCR” value [4] is on record?
Its value is “not in the control cells; also recorded: not in cells not expressing GPR81”.

What about the “stimulation of 35S-GTPγS binding in GPR81-expressing cells” value (GPR81 [1]; at 1 mM and 5 mM) of the same compound?
Its value is “significantly stimulated”.

What about the “stimulation of 35S-GTPγS binding in GPR81-expressing cells / cell membranes” value (GPR81 [1]) of the same compound?
Its value is “stimulates”.

And the GPR81 agonist activity (GPR81 [1])?
Its GPR81 agonist activity is “yes”.

And the GPR81 agonist activity (GPR81 [1]; listed as GHB)?
The GPR81 agonist activity was “activated GPR81”.
